# Measurements reported in ChEMBL document CHEMBL3137667, “[Drug-induced liver injury; fourteenth updated edition of the bibliographic database of liver injuries and related drugs]” (Gastroenterol Clin Biol, 2004).
# Columns and labels:
# [1] = human
# [2] = human; remark: listed apart in the source
# [3] = human; remark: listed apart in the source
# [4] = human; remark: listed apart in the source
# [5] = human; remark: listed apart in the source
# [6] = human; remark: listed apart in the source
# [7] = human; remark: listed apart in the source
# [8] = Highest frequency of acute liver toxicity observed during clinical trials, expressed as a percentage. [column '% AIGUE' in source]; conditions: human
# [9] = human, serum, 4383 h
# [10] = human, serum
# [11] = human; remark: listed apart in the source
# [12] = Highest frequency of moderate liver toxicity observed during clinical trials, expressed as a percentage. [column '% BIOL' in source]; conditions: human
# [13] = human, serum; remark: listed apart in the source
# [14] = human; remark: listed apart in the source
# 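Wherever Hepatotoxicity (association with vascular disease) is given: count of indexed literature references reporting vascular liver injury in humans, e.g. peliosis hepatitis, hepatic veno-occlusive disease or Budd-Chiari syndrome.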
# 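Wherever Hepatotoxicity (benign tumour) is given: value is a count of indexed literature references citing a benign tumour confirmed by histopathology.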
# 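Wherever Hepatotoxicity (choleostasis) is given: human cholestatic liver injury, shown by histopathology or by peak ALT or AST elevation over alkaline phosphatase ratio below 2, value counts indexed literature reports.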
# 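Wherever Hepatotoxicity (chronic liver disease) is given: chronic liver injury confirmed by histopathology or persistently raised serum aminotransferase activity beyond 6 months, value given as the count of indexed literature references.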
# 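Wherever Hepatotoxicity (cirrhosis) is given: value is a count of indexed literature references reporting cirrhosis confirmed by histopathology.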
# 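Wherever Hepatotoxicity (cytolytic) is given: human cytolytic liver injury, shown by histopathology or by a ratio above 5 of peak ALT or AST elevation to alkaline phosphatase elevation, value counts indexed references.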
# 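Wherever Hepatotoxicity (granulomatous hepatitis) is given: value is a count of indexed literature references reporting granulomatous liver disease confirmed by histopathology.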
# 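Wherever Hepatotoxicity (malignant tumour) is given: malignant tumour confirmed by histopathology, value gives the count of indexed literature references reporting it.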
# 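Wherever Hepatotoxicity (severe hepatitis) is given: human clinical data: severe hepatitis, meaning potentially life-threatening liver failure or clinically observed cases, the value counts how many indexed literature references report it.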
# 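Wherever Hepatotoxicity (steatosis) is given: steatosis confirmed by histopathology, value is the count of indexed references.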
Compound,Hepatotoxicity (association with vascular disease) [1],Hepatotoxicity (benign tumour) [2],Hepatotoxicity (granulomatous hepatitis) [3],Hepatotoxicity (cirrhosis) [4],Hepatotoxicity (malignant tumour) [5],Hepatotoxicity (choleostasis) [6],Hepatotoxicity (severe hepatitis) [7],Hepatotoxicity (acute) [8] [%],Hepatotoxicity (chronic liver disease) [9],Hepatotoxicity (moderate) [10],Hepatotoxicity (steatosis) [11],Hepatotoxicity (moderate) [12] [%],Hepatotoxicity (acute) [13],Hepatotoxicity (cytolytic) [14],Hepatotoxicity (granulomatous hepatitis) ([3]; Liver),Hepatotoxicity (choleostasis) ([6]; Liver),Hepatotoxicity (severe hepatitis) ([7]; Liver),Hepatotoxicity (acute) ([8]; Liver) [%],Hepatotoxicity (moderate) ([12]; Liver) [%],Hepatotoxicity (cytolytic) ([14]; Liver)
CO/N=C(\C(=O)N[C@@H]1C(=O)N2C(C(=O)O)=CCS[C@H]12)c1csc(N)n1 [CEFTIZOXIME],0,0,0,0,0,1,0,1.4,0,32,0,35,4,1,–,–,–,–,–,–
CO/N=C(\C(=O)N[C@@H]1C(=O)N2C(C(=O)O)=C(CSc3cnns3)CS[C@H]12)c1csc(N)n1 [CEFUZONAM],0,0,0,0,0,0,0,0,0,19,0,14.3,0,0,–,–,–,–,–,–
O=C(Cc1cccs1)N[C@@H]1C(=O)N2C(C(=O)[O-])=C(C[n+]3ccccc3)CS[C@H]12 [CEPHALORIDINE],0,0,0,0,0,0,0,0,0,1,0,0,0,0,–,–,–,–,–,–
[H]/N=C(\N/C(=N/[H])NCCCCCCNC(=N)NC(=N)Nc1ccc(Cl)cc1)Nc1ccc(Cl)cc1 [CHLORHEXIDINE],0,0,0,0,0,0,0,0,0,0,0,0,1,0,–,–,–,–,–,–
NS(=O)(=O)c1cc(C2(O)NC(=O)c3ccccc32)ccc1Cl (stereo not given) [CHLORTHALIDONE],0,0,0,0,0,0,0,0,0,0,0,0,2,0,–,–,–,–,–,–
CN1CCC[C@@H]1CCO[C@](C)(c1ccccc1)c1ccc(Cl)cc1 [CLEMASTINE],0,0,0,0,0,0,0,0,0,1,0,0.7,0,0,–,–,–,–,–,–
COc1ccc([C@@H]2Sc3cc(Cl)ccc3N(CCN(C)C)C(=O)[C@@H]2OC(C)=O)cc1 [CLENTIAZEM],0,0,0,0,0,0,0,0,0,1,0,3.7,0,0,–,–,–,–,–,–
CN(C)C(=O)CCCOC(=O)C(C)(C)Oc1ccc(Cl)cc1 [CLOFIBRIDE],0,0,0,0,0,0,0,0,0,1,0,0,0,0,–,–,–,–,–,–
Clc1cccc(Cl)c1N=C1NCCN1 [CLONIDINE],0,0,–,0,0,–,–,–,0,1,0,–,0,–,0,0,0,0,12.5,0
CN(C)CCC=C1c2ccccc2C=Cc2ccccc21 [CYCLOBENZAPRINE],0,0,–,0,0,–,–,–,0,1,0,–,1,–,0,0,0,0,0,0
NS(=O)(=O)c1cc2c(cc1Cl)NC(CC1CCCC1)NS2(=O)=O (stereo not given) [CYCLOPENTHIAZIDE],0,0,0,0,0,0,0,0,0,1,0,0,1,0,–,–,–,–,–,–
CCC1=C(C[C@H]2NCCc3cc(OC)c(OC)cc32)C[C@H]2c3cc(OC)c(OC)cc3CCN2C1 [DEHYDROEMETINE],0,0,0,0,0,0,0,0,0,1,0,0,0,0,–,–,–,–,–,–
CC(C)Nc1cccnc1N1CCN(C(=O)c2cc3cc(NS(C)(=O)=O)ccc3[nH]2)CC1 [DELAVIRDINE],0,0,0,0,0,0,0,0,0,2,0,7.1,0,0,–,–,–,–,–,–
Nc1ncc2ncn(COCCO)c2n1 [DESCICLOVIR],0,0,0,0,0,0,0,0,0,1,0,15.4,0,0,–,–,–,–,–,–
CCOC(OCC)C(=O)OCC(=O)[C@]1(O)Cc2c(O)c3c(c(O)c2[C@@H](O[C@H]2C[C@H](N)[C@H](O)[C@H](C)O2)C1)C(=O)c1c(OC)cccc1C3=O [DETORUBICIN],0,0,0,0,0,0,0,0,0,2,0,9.4,0,0,–,–,–,–,–,–
